Source: patent publication US20240117303A1, “METHODS AND COMPOSITIONS FOR GENERATING HUMAN MIDBRAIN DOPAMINERGIC NEURONS FROM NEURAL PROGENITOR CELLS” (Trailhead Biosystems Inc., priority 2022, published 2024)

Experiments:
Assay type in all cases: cell-based, human
[1] = tested on: stage 1 neural stem cells; experiment: HD-DoE 12-factor experiment for stage 2 recipe (first model, FIG. 5-7, 12); conditions: for factor contribution: positive impact
Description: To further guide the differentiation of midbrain-committed neural stem cells to neural progenitor cells at stage 2, we performed an additional HD-DoE experiment. We thereby obtained additional gene regulatory models that were used for preparation of differentiation protocol. The basis of this was a 12-factor HD-DoE experiment with focus on initiation of differentiation of cells toward midbrain neural progenitor cells for an additional 3 days after termination of stage 1 treatment. Here, we focused on expression of LMX1A and FOXA2 in neural progenitor cells with low to zero expression of GBX2. LMX1A had significant high expression level in the model with value of 47888. Therefore, we used optimization setting for this gene to identify the positive factors. The factors in this experiment included SC79, MK2206, ZM336372, PD0325901, CHIR99021, A 83-01, TTNPB, AGN193109, GW3965, SR9243, Purmorphamine and GSI-XX.
(§1) To assess the impact of elimination of each validated factor, we used dynamic profile analysis and compared the expression level of genes of interest in absence of each finalized factor while others are present.
(§2) In the stage 2 recipe, each of the six finalized factors were removed while the other five factors were present and the expression levels of FOXA2, LMX1A and GBX2 were assessed, compared to the levels in the presence of all factors. According to the first experiment model, the absence of TTNPB lead to a rise of GBX2 expression, while the value of FOXA2 and LMX1A reduced drastically from 10,000 to 0 and 30,000 to 15,000, respectively. The absence of A 83-01 reduced the expression of FOXA2 from 10,000 to 7000, however, as expected, the value of LMX1A increased from 30,000 to 40,000. […] According to the second experiment model, the absence of BMP7 and MK2206 both reduced the level of FOXA2 while increasing the value of LMX1A, with BMP7 as the main effector that led to 0 expression of FOXA2.

[2] = tested on: stage 1 neural stem cells; experiment: HD-DoE 12-factor experiment for stage 2 recipe (second model, FIG. 8-10, 13); conditions: dynamic profile, 12 effectors
Experimental: To test additional factors like FGF8 that is routinely used in midbrain differentiation protocols, we ran another 12-factor experiment consisting of LDN193189, BMP7, A 83-01, Activin A, Takinib, PD0325901, MK2206, FGF8b, AZD3147, MHY1485, GSI-XX and Yhhu 3792. Similar to the previous experiment, hiPSCs were treated with stage 1 media for 3 days and then treated with 96 conditions of combinations of the factors for an additional 3 days. When this model was optimized for maximum expression of FOXA2, BMP7 with factor contribution of 13.7 and MK2206 with 14.2 had the most impact on its expression followed by AZD 3147 with factor contribution of 10.9.
as §1, §2

[3] = tested on: stage 2 neural progenitors; experiment: HD-DoE 12-factor model for stage 3 recipe (FIG. 19-23, 29)
Description: To develop the neuronal differentiation recipes, the impact of various agonist and antagonists (effectors) on maturation of MB neural progenitors was investigated using the HD-DoE method described in Example 1. These effectors were chosen based on available literature on developmental biology, differentiation of stem cells as well as mouse and human single cell RNA-seq data from midbrain neurons at the time.
To engineer the recipe of stage 3 of differentiation, cells were first cultured in the stage 1 and stage 2 media as described herein, then they were treated with combinations of 8 or 12 factors for 3 days and the gene expression of cells in each condition was modeled. To guide the cells towards a subtype of midbrain dopaminergic neurons that reside in Substantia Nigra pars compacta (SNc) region of the brain, neural progenitors need to be SOX6^+ (Pereira et al. (2021) Cell Rep. 37:109975 Oosterveen et al. (2021) Stem Cell Reports 16:2718-2735 Poulin et al. (2020) Trends Neurosci. 43:155-169). CORIN, NGN2 and MSX1 are other markers involved in neurogenesis of dopaminergic neurons originating from floorplate region of developing midbrain (Wang et al. (2020) Cells 9:1489; Samata et al. (2016) Nat Commun. 7:13097; Ono et al. (2007) Development 134:3213-3225; Prakash et al. (2006) J. Physiol. 575:403410).
Therefore, we focused on maximizing expression of SOX6, CORIN, NGN2 and MSX1 in modeling experiments. One of the 12-factor models, the results of which are shown in FIG. 19, including LDN193189, AGN193109, BMP7, TTNPB, PD0325901, A8301, MHY1485, CHIR99021, XAV939, SANT-1, Purmorphamine and MK2206, provided a combination set that could maximize expression level of CORIN to more than 2000.
To assess the impact of elimination of each validated factor identified in Example 5 for the stage 3 and stage 4 recipes, we used dynamic profile analysis and compared the expression level of genes of interest in absence of each finalized factor while others are present.
In the stage 3 recipe, each of the finalized factors were removed in their respective models while other factors were present and the expression level of genes of interest was assessed compared to presence of all factors. When AGN193109 was excluded, level of all CORIN, KCNJ6, MSX1 and SOX6 decreased from 900 to 450, 50 to 35, 140 to 110 and 105 to 60, respectively. […] When PD0325901 was removed, expression levels of CORIN and KCNJ6 increased to 1200 and 70 while levels of MSX1 and SOX6 decreased to 105 and 20. In the absence of CHIR99021, the expression level of CORIN was again increased to 1200 while the level of KCNJ6 and MSX1 dropped to 50 and 115. […] Therefore, it was decided to include this compound in the final recipe. […] Therefore, CHIR99021 was also included in the final recipe.

CCOC(=O)C1=C(N)Oc2ccc(Cl)cc2C1C(C#N)C(=O)OCC (centres unmarked) [SC79]
factor contribution ([1]; model optimized for LMX1A): 7.3

C[C@H](NC(=O)Cc1cc(F)cc(F)c1)C(=O)N[C@@H]1C(=O)N(C)c2ccccc2-c2ccccc21 [GSI-XX]
impact on expression of FOXA2 [2]: did not make a meaningful positive change | impact on expression of LMX1A [2]: did not make a meaningful positive change

Cc1cccc(-c2nn(C(=S)Nc3ccccc3)cc2-c2ccnc3ccccc23)n1 [A 83-01]
level of GBX2 ([1]; addition of A 83-01 at 300 nM, dynamic profile): ~0 | impact on expression of FOXA2 ([1]; dynamic profile / model, 12 effectors): positive impacts | factor contribution ([1]; model optimized for maximum expression of FOXA2): 6.7 | value of FOXA2 in absence of the factor ([1]; stage 2 recipe, first experiment model, 10,000 with all factors): 7000 | value of LMX1A in absence of the factor ([1]; stage 2 recipe, first experiment model, 30,000 with all factors): 40,000

Oc1nc(-c2ccc(C(F)(F)F)cc2)nc2c1CSCC2 [XAV939]
factor contribution ([3]; model maximizing expression of CORIN, negative impact): 13.5 | factor contribution ([3]; model optimized for MSX1, negative regulatory effect): 11.2 | factor contribution ([3]; model optimized for SOX6, negative impact): 10.8

Cc1ccc(C2=CCC(C)(C)c3ccc(C#Cc4ccc(C(=O)O)cc4)cc32)cc1 [AGN193109]
factor contribution ([1]; model optimized for LMX1A): < 1 | impact on expression of KCNJ6 ([3]; dynamic profile, 12 effectors): positive impact | factor contribution ([3]; model maximizing expression of CORIN, positive regulatory impact): 20.3 | factor contribution ([3]; model optimized for maximum expression of KCNJ6, positive regulators): 17 | factor contribution ([3]; model optimized for maximum expression of SOX6, positive impact): 26.1 | expression level of KCNJ6 in absence of the factor ([3]; stage 3 recipe, other factors present, 50 with all factors): 35 | expression level of SOX6 in absence of the factor ([3]; stage 3 recipe, other factors present, 105 with all factors): 60 | expression level of MSX1 in absence of the factor ([3]; stage 3 recipe, other factors present, 140 with all factors): 110 | expression level of CORIN in absence of the factor ([3]; stage 3 recipe, other factors present, 900 with all factors): 450
